Results from PubChem BioAssay (NCI).
Several values for one entry are separate records, joined by “and”; a condition that tells them apart may be missing. Identical values can stand only once.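 Interpolation was linear, between the two tested concentrations surrounding the appropriate level; five concentrations were tested over 48 hours in 96-well plates. Here, GI50 denotes the concentration required for 50% inhibition of growth. TGI is the concentration that stops growth completely.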

How the values were obtained:
Experiment in all cases: NCI anticancer screen, dose series, 48 h
[1] = test system: A549 NSCLC
[2] = test system: HCC-2998 colon
[3] = test system: HL-60(TB) leukemia
[4] = test system: HS 578T breast
[5] = test system: K-562 leukemia
[6] = test system: MALME-3M melanoma
[7] = test system: MOLT-4 leukemia
[8] = test system: NCI-H226 lung
[9] = test system: SF-268 CNS
[10] = test system: SR leukemia

Compound | TGI [1] | TGI [2] | TGI [3] | TGI [4] | TGI [5] | TGI [6] | TGI [7] | TGI [8] | TGI [9] | TGI [10] | GI50 [1] | GI50 [2] | GI50 [3] | GI50 [4] | GI50 [6] | GI50 [8] | GI50 [9] | GI50 [10] | GI50 [5] | GI50 [7]
CCc1nc(N)nc(N)c1-c1ccc([N+](=O)[O-])c(Cl)c1 | > 80.8 µM | > 100 µM | > 100 µM | > 100 µM | > 100 µM | > 100 µM | > 100 µM | > 100 µM | > 100 µM | > 100 µM | – | – | – | – | – | – | – | – | – | –
COc1ccc(S(=O)(=O)NCCNc2nccc(-c3c(-c4ccccc4)nc4sccn34)n2)cc1 | > 100 µM | > 100 µM | > 100 µM | 47.4 µM | – | > 100 µM | – | > 100 µM | > 100 µM | > 100 µM | 1.61 µM | 16.1 µM | 2.87 µM | 2.18 µM | 8.77 µM | 4.66 µM | 3.74 µM | 0.784 µM | – | –
CCCCCCN(CCCCCC)CC(O)c1cccc2ccc(Cl)cc12 (stereo not drawn) | 26.4 µM | 8.04 µM | 24.6 µM | 26.4 µM | 20.9 µM | 22.4 µM | 26.1 µM | 18.2 µM | 27.1 µM | 9.85 µM | 12.2 µM | 2.96 µM | 9.63 µM | 8.36 µM | 9.43 µM | 4.89 µM | 12.4 µM | 3.55 µM | 4.87 µM | 7.81 µM
CCN(CC)CCOc1ccc(C2=C(c3ccccc3)CCc3cc(OC)ccc32)cc1 | 16.2 µM | 2.81 µM | 26 µM | 10.9 µM | 15.5 µM | 3.41 µM | 21.3 µM | 12.6 µM | 18 µM | – | 4.02 µM | 1.39 µM | 8.99 µM | 3.72 µM | 1.69 µM | 3.07 µM | 5.97 µM | 0.518 µM | 2.8 µM | 4.64 µM
CCCCCCCCCCCCCCCCCC1=NC(C)(C)CN1CCO | – | 3.11 µM | 4.11 µM | 3.93 µM | 3.35 µM | 5.6 µM | 4.73 µM | 9.04 µM | 3.27 µM | 4.02 µM | – | 1.71 µM | 1.81 µM | 1.66 µM | 2.18 µM | 2.84 µM | 1.8 µM | 1.5 µM | 1.53 µM | 1.96 µM
C=CC[PH+](c1ccccc1)c1ccccc1.C=CC[PH+](c1ccccc1)c1ccccc1.[Cl][Pt][Cl] | > 100 µM | 29.9 µM | 14 µM | 48.6 µM | 11.9 µM | 5.8 µM | 14 µM | 33 µM | 32 µM | 11.7 µM | 21.8 µM | 15 µM | 3.34 µM | 13.4 µM | 2.22 µM | 16.1 µM | 14.2 µM | 2.84 µM | 3.27 µM | 3.11 µM
Cc1cc(N)c2ccccc2[n+]1CCCCCCCCCC[n+]1c(C)cc(N)c2ccccc21 | 6.88 µM and 50 µM | 4.52 µM and 2.76 µM and 9.8 µM | 0.545 µM and 2.14 µM | > 19.2 µM and 29.6 µM | 2.22 µM and 3.84 µM and 12.4 µM | – | 1.38 µM and 3.23 µM and 4.08 µM | > 50 µM and 22.7 µM and 5.29 µM | 3.49 µM and 10.3 µM and 32.5 µM | 0.656 µM and 3.95 µM and 4.37 µM | 0.116 µM | 0.253 µM | 0.142 µM | 0.303 µM | 0.163 µM and 1.35 µM | 0.576 µM and 1.11 µM | – | 0.151 µM and 1.07 µM | 0.137 µM | 0.549 µM and 1.41 µM
O=c1[nH]c2cc(O)ccc2n2cc3c(F)cccc3c12 | > 100 µM | > 100 µM | > 100 µM | > 100 µM | > 100 µM | > 100 µM | > 100 µM | > 100 µM | > 100 µM | 28.9 µM | 1.31 µM | > 24.3 µM | 6.55 µM | 3.85 µM | 3.96 µM | 2.04 µM | 2.57 µM | 0.509 µM | 0.547 µM | 2.16 µM
C=C(C)[C@]12CC(C)C34OC(/C=C\C=C\CCCCCCCCC)(O[C@@H]1[C@@H]3[C@@H]1O[C@]1(CO)[C@@H](O)[C@]1(O)C(=O)C(C)=C[C@@H]41)O2 (stereo partly drawn) | 20.9 µM | – | > 20.5 µM | 3.97 µM | > 35 µM | 23.1 µM | – | 33.2 µM | 28.5 µM | 15.8 µM | < 0.0001 µM | < 0.0001 µM | < 0.0001 µM | – | < 0.0001 µM | – | – | – | < 0.0001 µM | –
O=[N+]([O-])c1cccc(-c2ncc(-c3ccc(Cl)cc3Cl)[nH]2)c1 | > 56.9 µM | 16.4 µM | 17.3 µM | > 49.5 µM | > 19.7 µM | 8.84 µM | 6.34 µM | 21.6 µM | 9.57 µM | 2.44 µM | 22 µM | 7.36 µM | 3.8 µM | 3.89 µM | 3.69 µM | 8.03 µM | 2.92 µM | 0.471 µM | 2.1 µM | 2.49 µM
O=C(CC(C(=O)O)N1CCOCC1)c1ccccc1 (stereo not drawn) | > 100 µM | – | 43.6 µM | 88.9 µM | 49.1 µM | 34 µM | 35.5 µM | > 100 µM | 44.6 µM | 35.5 µM | – | – | – | – | – | – | – | – | – | –
CC(=O)C1=C(O)/C(=C\c2ccco2)OC1=O | > 10 µM | > 10 µM | > 10 µM | > 10 µM | > 10 µM | > 10 µM | > 10 µM | > 10 µM | > 10 µM | > 10 µM | – | – | – | – | – | – | – | – | – | –
CN1CCN(C(=S)SCN2C(=O)c3ccccc3S2(=O)=O)CC1 | > 100 µM | 85.3 µM | 20.3 µM | > 100 µM | 94.6 µM | 95.8 µM | 25.7 µM | > 100 µM | > 100 µM | 13.4 µM | 28.3 µM | 30.9 µM | 0.492 µM | 58.7 µM | 23.1 µM | > 100 µM | 37.4 µM | 4.04 µM | 14.5 µM | 5.08 µM
O=C(CN=Cc1cccs1)CSC(c1ccccc1)c1ccccc1 | 76.1 µM | 93.3 µM | 41.9 µM | 97 µM | 54.1 µM | 49.4 µM | 69.1 µM | 66 µM | > 100 µM | 54.1 µM | 21.7 µM | 29.3 µM | 18.9 µM | 26.1 µM | 19.6 µM | 24 µM | 50.1 µM | 17.1 µM | 15.8 µM | 18.5 µM
